Test results as given in article PMC6199744, “Development of Chemical Proteomics for the Folateome and Analysis of the Kinetoplastid Folateome” (ACS Infectious Diseases, 2018).
Like-named read-outs stand apart in the source and are kept apart here.

Legend:
Type in all cases: binding
[1] = molecular target: T1, HeLa cell extract proteins (Homo sapiens, UniProt Q92973)
T1 construct: endogenous in cells; host or cells: HeLa cell extract
T1 sequence (Q92973 1-898): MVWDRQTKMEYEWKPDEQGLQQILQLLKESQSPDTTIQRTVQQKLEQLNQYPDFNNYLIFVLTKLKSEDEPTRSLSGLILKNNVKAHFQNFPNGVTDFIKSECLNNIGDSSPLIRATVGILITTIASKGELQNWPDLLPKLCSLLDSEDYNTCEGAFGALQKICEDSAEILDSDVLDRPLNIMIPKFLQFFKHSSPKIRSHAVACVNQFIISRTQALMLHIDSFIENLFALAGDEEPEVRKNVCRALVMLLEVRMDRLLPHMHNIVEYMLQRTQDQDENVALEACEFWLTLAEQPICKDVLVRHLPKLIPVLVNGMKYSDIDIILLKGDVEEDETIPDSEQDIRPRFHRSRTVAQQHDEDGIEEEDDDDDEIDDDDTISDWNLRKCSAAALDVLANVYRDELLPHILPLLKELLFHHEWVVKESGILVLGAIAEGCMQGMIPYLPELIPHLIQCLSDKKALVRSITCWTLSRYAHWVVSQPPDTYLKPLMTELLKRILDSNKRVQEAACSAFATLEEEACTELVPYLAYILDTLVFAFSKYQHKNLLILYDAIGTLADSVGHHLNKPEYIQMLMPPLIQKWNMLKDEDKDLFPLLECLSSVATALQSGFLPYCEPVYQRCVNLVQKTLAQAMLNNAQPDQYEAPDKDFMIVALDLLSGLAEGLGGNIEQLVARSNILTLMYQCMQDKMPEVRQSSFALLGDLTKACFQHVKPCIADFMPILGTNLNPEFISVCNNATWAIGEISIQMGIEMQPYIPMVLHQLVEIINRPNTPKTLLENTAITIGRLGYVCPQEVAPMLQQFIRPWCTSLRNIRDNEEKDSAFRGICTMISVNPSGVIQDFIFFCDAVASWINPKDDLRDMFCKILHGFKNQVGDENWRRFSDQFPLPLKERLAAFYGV

[2] = molecular target: T2, HeLa cell extract proteins (Homo sapiens, UniProt Q9P035)
T2 construct: endogenous in cells; host or cells: HeLa cell extract
T2 sequence (Q9P035 1-362): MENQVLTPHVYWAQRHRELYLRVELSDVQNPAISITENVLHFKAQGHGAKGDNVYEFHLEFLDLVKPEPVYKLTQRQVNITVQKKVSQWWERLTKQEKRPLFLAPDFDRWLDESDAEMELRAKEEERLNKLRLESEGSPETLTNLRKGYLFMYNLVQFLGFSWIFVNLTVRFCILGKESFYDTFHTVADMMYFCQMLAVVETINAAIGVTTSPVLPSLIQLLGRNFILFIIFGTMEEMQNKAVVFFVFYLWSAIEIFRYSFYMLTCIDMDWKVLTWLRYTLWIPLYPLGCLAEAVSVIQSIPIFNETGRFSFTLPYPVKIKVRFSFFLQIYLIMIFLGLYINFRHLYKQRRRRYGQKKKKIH

[3] = molecular target: T3, HeLa cell extract proteins (Homo sapiens, UniProt P61160)
T3 construct: endogenous in cells; host or cells: HeLa cell extract

[4] = molecular target: T4, HeLa cell extract proteins (Homo sapiens, UniProt Q15008)
T4 construct: endogenous in cells; host or cells: HeLa cell extract
T4 sequence (Q15008 1-389): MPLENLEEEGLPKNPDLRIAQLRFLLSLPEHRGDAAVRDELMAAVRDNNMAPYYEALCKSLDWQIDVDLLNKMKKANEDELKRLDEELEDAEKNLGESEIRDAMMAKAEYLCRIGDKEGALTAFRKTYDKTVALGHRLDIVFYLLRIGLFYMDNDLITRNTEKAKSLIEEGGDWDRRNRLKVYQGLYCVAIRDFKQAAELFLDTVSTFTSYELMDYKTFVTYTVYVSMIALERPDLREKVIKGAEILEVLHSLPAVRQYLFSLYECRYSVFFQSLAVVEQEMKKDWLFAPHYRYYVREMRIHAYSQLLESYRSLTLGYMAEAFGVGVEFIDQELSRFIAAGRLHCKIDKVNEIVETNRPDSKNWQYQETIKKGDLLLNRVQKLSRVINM

[5] = molecular target: T5, HeLa cell extract proteins (Homo sapiens, UniProt O75521)
T5 construct: endogenous in cells; host or cells: HeLa cell extract
T5 sequence (O75521 39-394): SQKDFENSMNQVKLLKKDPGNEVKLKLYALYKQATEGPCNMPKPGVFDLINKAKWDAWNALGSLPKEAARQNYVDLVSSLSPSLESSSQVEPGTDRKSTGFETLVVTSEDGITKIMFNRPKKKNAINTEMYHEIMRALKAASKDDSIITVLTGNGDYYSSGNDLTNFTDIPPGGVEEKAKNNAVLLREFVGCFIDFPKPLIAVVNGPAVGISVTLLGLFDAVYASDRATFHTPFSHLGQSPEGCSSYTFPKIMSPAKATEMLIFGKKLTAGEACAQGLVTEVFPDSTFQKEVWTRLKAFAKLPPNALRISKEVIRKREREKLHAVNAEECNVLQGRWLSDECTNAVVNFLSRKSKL

[6] = molecular target: T6, HeLa cell extract proteins (Homo sapiens, UniProt Q9H1A4)
T6 construct: endogenous in cells; host or cells: HeLa cell extract
T6 sequence (Q9H1A4 whole entry): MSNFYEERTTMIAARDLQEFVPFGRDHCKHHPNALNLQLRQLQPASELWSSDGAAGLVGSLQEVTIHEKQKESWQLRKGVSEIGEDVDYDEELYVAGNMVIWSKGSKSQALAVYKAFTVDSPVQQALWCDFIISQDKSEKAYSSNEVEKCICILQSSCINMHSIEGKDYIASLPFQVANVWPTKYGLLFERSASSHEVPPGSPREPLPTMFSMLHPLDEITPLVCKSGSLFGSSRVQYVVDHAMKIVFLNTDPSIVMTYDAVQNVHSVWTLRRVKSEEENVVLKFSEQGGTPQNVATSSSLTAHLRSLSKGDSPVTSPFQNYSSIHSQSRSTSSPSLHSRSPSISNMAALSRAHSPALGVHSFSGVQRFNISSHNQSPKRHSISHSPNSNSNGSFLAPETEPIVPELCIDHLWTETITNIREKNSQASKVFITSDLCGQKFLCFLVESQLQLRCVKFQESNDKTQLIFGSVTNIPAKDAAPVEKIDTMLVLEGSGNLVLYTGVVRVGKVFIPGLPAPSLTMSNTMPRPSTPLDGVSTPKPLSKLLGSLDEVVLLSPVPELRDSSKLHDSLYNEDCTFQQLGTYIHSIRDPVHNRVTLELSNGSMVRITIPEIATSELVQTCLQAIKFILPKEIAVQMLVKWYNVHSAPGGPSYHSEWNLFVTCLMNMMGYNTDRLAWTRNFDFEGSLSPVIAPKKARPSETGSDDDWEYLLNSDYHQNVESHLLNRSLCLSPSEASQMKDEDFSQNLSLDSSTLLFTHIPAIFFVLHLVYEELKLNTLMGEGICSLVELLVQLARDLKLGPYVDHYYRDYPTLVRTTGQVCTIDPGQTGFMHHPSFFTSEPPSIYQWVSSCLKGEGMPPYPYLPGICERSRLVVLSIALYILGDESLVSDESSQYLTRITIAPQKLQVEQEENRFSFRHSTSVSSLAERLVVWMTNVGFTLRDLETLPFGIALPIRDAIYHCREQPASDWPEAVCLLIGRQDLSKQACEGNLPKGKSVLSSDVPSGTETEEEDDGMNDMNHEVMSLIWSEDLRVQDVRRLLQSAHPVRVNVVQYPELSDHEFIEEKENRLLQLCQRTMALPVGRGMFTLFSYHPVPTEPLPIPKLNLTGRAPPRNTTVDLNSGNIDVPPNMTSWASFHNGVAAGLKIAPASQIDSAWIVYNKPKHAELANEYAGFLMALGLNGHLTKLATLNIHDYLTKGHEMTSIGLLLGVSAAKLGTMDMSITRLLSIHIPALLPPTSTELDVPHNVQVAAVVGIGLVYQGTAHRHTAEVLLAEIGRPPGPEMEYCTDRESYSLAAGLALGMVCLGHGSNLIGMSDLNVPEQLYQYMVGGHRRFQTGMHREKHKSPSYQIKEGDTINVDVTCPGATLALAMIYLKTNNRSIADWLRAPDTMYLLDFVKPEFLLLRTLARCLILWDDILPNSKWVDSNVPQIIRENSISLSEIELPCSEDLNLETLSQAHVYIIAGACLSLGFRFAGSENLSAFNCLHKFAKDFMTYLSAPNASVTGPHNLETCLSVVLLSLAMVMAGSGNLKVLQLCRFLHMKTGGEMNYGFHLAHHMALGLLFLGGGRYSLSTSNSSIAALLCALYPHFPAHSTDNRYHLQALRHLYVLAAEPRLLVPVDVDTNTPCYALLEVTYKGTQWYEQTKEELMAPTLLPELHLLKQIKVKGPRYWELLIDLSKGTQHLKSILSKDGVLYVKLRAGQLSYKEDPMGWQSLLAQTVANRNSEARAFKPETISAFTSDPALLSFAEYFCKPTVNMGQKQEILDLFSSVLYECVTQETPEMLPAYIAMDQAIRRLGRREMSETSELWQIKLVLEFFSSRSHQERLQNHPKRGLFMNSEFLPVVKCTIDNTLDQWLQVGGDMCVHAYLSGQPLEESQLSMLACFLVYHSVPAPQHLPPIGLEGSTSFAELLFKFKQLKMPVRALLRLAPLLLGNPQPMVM

[7] = molecular target: T7, HeLa cell extract proteins (Homo sapiens, UniProt Q15365)
T7 construct: endogenous in cells; host or cells: HeLa cell extract
T7 sequence (Q15365 whole entry): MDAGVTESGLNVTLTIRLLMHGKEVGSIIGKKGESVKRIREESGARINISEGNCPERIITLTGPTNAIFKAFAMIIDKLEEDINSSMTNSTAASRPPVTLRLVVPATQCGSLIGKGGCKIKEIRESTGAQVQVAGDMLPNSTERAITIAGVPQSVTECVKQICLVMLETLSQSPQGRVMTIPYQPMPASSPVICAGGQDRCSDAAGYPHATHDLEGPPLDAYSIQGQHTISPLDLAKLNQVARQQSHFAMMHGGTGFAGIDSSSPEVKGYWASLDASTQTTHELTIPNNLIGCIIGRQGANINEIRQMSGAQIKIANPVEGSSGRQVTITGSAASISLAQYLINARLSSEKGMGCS

[8] = molecular target: T8, HeLa cell extract proteins (Homo sapiens, UniProt P07814)
T8 construct: endogenous in cells; host or cells: HeLa cell extract
T8 sequence (P07814 whole entry): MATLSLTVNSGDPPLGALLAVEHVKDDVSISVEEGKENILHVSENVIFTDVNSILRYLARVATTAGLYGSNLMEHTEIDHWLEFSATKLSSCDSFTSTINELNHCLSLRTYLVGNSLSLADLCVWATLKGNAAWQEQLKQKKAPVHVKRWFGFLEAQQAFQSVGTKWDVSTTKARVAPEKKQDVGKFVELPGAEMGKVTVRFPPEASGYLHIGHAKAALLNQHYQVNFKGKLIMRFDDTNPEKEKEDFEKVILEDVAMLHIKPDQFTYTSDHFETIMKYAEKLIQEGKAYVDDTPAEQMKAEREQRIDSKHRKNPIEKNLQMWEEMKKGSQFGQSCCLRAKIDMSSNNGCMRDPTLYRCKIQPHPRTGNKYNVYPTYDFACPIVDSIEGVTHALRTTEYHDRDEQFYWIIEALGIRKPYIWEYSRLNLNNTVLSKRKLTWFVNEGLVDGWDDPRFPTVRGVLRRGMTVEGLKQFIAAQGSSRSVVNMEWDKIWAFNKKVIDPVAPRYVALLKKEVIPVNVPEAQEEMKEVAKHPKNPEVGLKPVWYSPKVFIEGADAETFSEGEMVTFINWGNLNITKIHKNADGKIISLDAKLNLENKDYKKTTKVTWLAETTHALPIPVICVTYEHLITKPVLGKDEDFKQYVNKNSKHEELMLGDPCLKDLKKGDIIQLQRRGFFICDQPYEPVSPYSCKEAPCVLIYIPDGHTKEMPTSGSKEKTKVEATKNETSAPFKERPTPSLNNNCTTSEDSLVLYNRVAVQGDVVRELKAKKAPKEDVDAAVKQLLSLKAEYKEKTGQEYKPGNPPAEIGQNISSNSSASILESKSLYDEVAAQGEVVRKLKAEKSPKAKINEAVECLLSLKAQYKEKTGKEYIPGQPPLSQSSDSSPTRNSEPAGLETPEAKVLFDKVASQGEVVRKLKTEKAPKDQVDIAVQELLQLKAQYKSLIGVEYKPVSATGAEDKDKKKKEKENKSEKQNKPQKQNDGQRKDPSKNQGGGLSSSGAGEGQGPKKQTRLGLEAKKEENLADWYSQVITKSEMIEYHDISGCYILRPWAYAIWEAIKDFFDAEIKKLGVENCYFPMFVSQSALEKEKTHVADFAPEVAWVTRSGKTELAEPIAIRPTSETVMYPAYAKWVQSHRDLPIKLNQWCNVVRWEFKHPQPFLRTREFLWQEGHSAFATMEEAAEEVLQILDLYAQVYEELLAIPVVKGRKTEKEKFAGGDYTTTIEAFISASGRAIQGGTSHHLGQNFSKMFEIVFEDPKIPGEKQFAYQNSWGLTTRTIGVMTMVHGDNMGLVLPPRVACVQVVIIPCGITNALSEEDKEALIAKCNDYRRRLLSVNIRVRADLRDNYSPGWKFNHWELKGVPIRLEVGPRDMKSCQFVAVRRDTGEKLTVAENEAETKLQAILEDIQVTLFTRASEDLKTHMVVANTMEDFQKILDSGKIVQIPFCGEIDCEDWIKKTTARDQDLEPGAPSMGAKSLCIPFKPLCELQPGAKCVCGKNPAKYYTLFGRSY

[9] = molecular target: T9, HeLa cell extract proteins (Homo sapiens, UniProt P24534)
T9 construct: endogenous in cells; host or cells: HeLa cell extract
T9 sequence (P24534 1-225): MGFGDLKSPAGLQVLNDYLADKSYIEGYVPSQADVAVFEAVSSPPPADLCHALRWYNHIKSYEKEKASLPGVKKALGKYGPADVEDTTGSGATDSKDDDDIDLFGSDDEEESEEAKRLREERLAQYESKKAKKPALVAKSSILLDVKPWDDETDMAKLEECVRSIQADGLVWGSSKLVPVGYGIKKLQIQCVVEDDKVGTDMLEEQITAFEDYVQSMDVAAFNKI

[10] = HeLa, protein ANAPC1 (ANAPHASE-PROMOTING COMPLEX SUBUNIT 1)
[11] = HeLa, protein EPRS (BI[…]-TRNA SYNTHETASE)

| Compound | fold changes relative to vehicle control ([1]; protein TNPO1, HeLa) | fold changes relative to vehicle control ([2]; captured protein PTPLAD1, HeLa) | fold changes relative to vehicle control ([3]; protein ACTR2, HeLa) | fold changes relative to vehicle control ([4]; protein PSMD6, HeLa) | fold changes relative to vehicle control ([5]; protein PECI, HeLa) | fold changes relative to vehicle control ([6]; HeLa, protein ANAPC1) | fold changes relative to vehicle control ([7]; protein PCBP1, HeLa) | fold changes relative to vehicle control ([8]; protein EPRS, HeLa) | fold changes relative to vehicle control ([9]; protein EEF1B2, HeLa) | fold changes relative to vehicle control ([1]; HeLa, protein TNPO1) | fold changes relative to vehicle control ([2]; HeLa, protein PTPLAD1) | fold changes relative to vehicle control ([3]; HeLa, protein ACTR2) | fold changes relative to vehicle control ([4]; HeLa, protein PSMD6) | fold changes relative to vehicle control ([5]; HeLa, captured protein PECI) | fold changes relative to vehicle control [6, 10] | fold changes relative to vehicle control ([7]; HeLa, protein PCBP1) | fold changes relative to vehicle control [8, 11] | further results |
| --- | --- | --- | --- | --- | --- | --- | --- | --- | --- | --- | --- | --- | --- | --- | --- | --- | --- | --- |
| CCCCCCOc1cccc(Cc2cnc(N)nc2N)c1 [compound 2] | 1.1 | 1.02 | 1.44 | 1.64 | 0.82 | 1.15 | 1.08 | 1.25 | 1.63 |  |  |  |  |  |  |  |  |  |
| NCCOCCOCC(=O)Nc1nc2ncc(CNc3ccc(C(=O)NC(CCC(=O)O)C(=O)O)cc3)nc2c(=O)[nH]1 (stereo not drawn) [compound 6] |  |  |  |  |  |  |  |  | 1.07 | 1.03 | 1.04 | 1.18 | 0.89 | 0.96 | 1.1 | 0.94 | 1.19 |  |
| CCCCCCOc1ccc(Cc2cnc(N)nc2N)cc1 [compound 1] | 1.01 | 1.06 | 1.06 | 0.94 | 0.99 | 1.05 | 1.02 | 1.06 | 1.03 |  |  |  |  |  |  |  |  |  |
| Nc1nc2c(c(=O)[nH]1)N(C=O)C(CNc1ccc(C(=O)N[C@@H](CCC(=O)O)C(=O)O)cc1)CN2 (stereo partly drawn) [LEU, leucovorin] |  |  |  |  |  |  |  |  | 0.84 | 0.98 | 0.97 | 0.99 | 0.77 | 1.06 | 1.09 | 0.92 | 1.11 |  |
| NCCCNc1ccc(C(=O)NC(CCC(=O)O)C(=O)O)cc1 (stereo not drawn) [compound 7] |  |  |  |  |  |  |  |  | 0.87 | 0.99 | 1.05 | 0.97 | 0.82 | 1.03 | 1.18 | 0.91 | 1.09 |  |
| Nc1nc2[nH]cc(CCc3ccc(C(=O)N[C@@H](CCC(=O)O)C(=O)O)cc3)c2c(=O)[nH]1 [PTX, pemetrexed] |  |  |  |  |  |  |  |  |  |  |  |  |  |  |  |  |  | fold changes relative to vehicle control [1]: 0.94; fold changes relative to vehicle control [2]: 1; fold changes relative to vehicle control [3]: 1.08; fold changes relative to vehicle control [4]: 0.69; fold changes relative to vehicle control [5]: 1.01; fold changes relative to vehicle control [6]: 1.1; fold changes relative to vehicle control [7]: 0.88; fold changes relative to vehicle control [8]: 1.06; fold changes relative to vehicle control [9]: 1 |
| Nc1nc2cccc(-c3ccccc3)c2n1Cc1ccc(Cl)c(Cl)c1 [compound 3] | 1 | 2.73 | 1.13 | 1.72 | 1.05 | 1.21 | 0.94 | 1.13 | 1.02 |  |  |  |  |  |  |  |  |  |
